ChEMBL document CHEMBL4028802, “DILIrank: the largest reference drug list ranked by the risk for developing drug-induced liver injury in humans” (Drug Discov Today, 2016)

Legend:
[1] = species: Homo sapiens; test: Liver toxicity in human assessed as induction of drug-induced liver injury by measuring verified drug-induced liver injury concern status
[2] = species: Homo sapiens; test: Liver toxicity in human assessed as induction of drug-induced liver injury by measuring severity class index
Wherever DILI severity class is given: key of the grades not given here.

Compound | DILI_Concern [1] | DILI_severity_class [2]
CN[C@H](CC(C)C)C(=O)N[C@H]1C(=O)N[C@@H](CC(N)=O)C(=O)N[C@H]2C(=O)N[C@H]3C(=O)N[C@H](C(=O)N[C@H](C(=O)O)c4cc(O)cc(O)c4-c4cc3ccc4O)[C@H](O)c3ccc(c(Cl)c3)Oc3cc2cc(c3O[C@@H]2O[C@H](CO)[C@@H](O)[C@H](O)[C@H]2O[C@H]2C[C@](C)(N)[C@H](O)[C@H](C)O2)Oc2ccc(cc2Cl)[C@H]1O [VANCOMYCIN] | Less-Dili-Concern | 0
N[C@@H](CS)C(=O)O [CYSTEINE] | Ambiguous-Dili-Concern | 3
COc1cccc(C2(O)CCCCC2CN(C)C)c1 (stereo not drawn) [TRAMADOL] | Ambiguous-Dili-Concern | 7
O=C(NCC(O)CO)c1c(I)c(C(=O)NCC(O)CO)c(I)c(N(CCO)C(=O)CO)c1I (stereo not drawn) [IOVERSOL] | No-Dili-Concern | 0
Nc1nc(Cl)nc2c1ncn2[C@H]1C[C@H](O)[C@@H](CO)O1 [CLADRIBINE] | Ambiguous-Dili-Concern | 3
CN1CCN(CCCN2c3ccccc3Sc3ccc(C(F)(F)F)cc32)CC1 [TRIFLUOPERAZINE] | Ambiguous-Dili-Concern | 2
CC(C)(C)NCC(O)COc1cccc2c1CC(O)C(O)C2 (stereo not drawn) [NADOLOL] | Ambiguous-Dili-Concern | 3
CCCCCCCCNC(C)C(O)c1ccc(SC(C)C)cc1 (stereo not drawn) [SULOCTIDIL] | Most-Dili-Concern | 8
CNCCCN1c2ccccc2CCc2ccccc21 [DESIPRAMINE] | Ambiguous-Dili-Concern | 3
CN1C(=O)CN=C(c2ccccc2)c2cc(Cl)ccc21 [DIAZEPAM] | Ambiguous-Dili-Concern | 4
NNC(=O)c1ccncc1 [ISONIAZID] | Most-Dili-Concern | 8
CO[C@H]1O[C@H](COS(=O)(=O)[O-])[C@@H](O[C@@H]2O[C@@H](C(=O)[O-])[C@@H](O[C@H]3O[C@H](COS(=O)(=O)[O-])[C@@H](O[C@@H]4O[C@H](C(=O)[O-])[C@@H](O[C@H]5O[C@H](COS(=O)(=O)[O-])[C@@H](O)[C@H](O)[C@H]5NS(=O)(=O)[O-])[C@H](O)[C@H]4O)[C@H](OS(=O)(=O)[O-])[C@H]3NS(=O)(=O)[O-])[C@H](O)[C@H]2OS(=O)(=O)[O-])[C@H](O)[C@H]1NS(=O)(=O)[O-].[Na+].[Na+].[Na+].[Na+].[Na+].[Na+].[Na+].[Na+].[Na+].[Na+] [FONDAPARINUX SODIUM] | Less-Dili-Concern | 3
CC(C)Cc1ccc(CC(=O)O)cc1 [IBUFENAC] | Most-Dili-Concern | 8
CO[C@H]1/C=C/O[C@@]2(C)Oc3c(C)c(O)c4c(O)c(c(/C=N/N5CCN(C6CCCC6)CC5)c(O)c4c3C2=O)NC(=O)/C(C)=C\C=C\[C@H](C)[C@H](O)[C@@H](C)[C@@H](O)[C@@H](C)[C@H](OC(C)=O)[C@@H]1C [RIFAPENTINE] | Ambiguous-Dili-Concern | 4
CN(C)CCC=C1c2ccccc2COc2ccccc21 [DOXEPIN] | Less-Dili-Concern | 4
OCCN1CCN(CCCN2c3ccccc3Sc3ccc(C(F)(F)F)cc32)CC1 [FLUPHENAZINE] | Ambiguous-Dili-Concern | 3
CCc1c2c(nc3ccc(OC(=O)N4CCC(N5CCCCC5)CC4)cc13)-c1cc3c(c(=O)n1C2)COC(=O)[C@]3(O)CC [IRINOTECAN] | Less-Dili-Concern | 3
SECRETIN | No-Dili-Concern | 0
NS(=O)(=O)c1cc2c(cc1C(F)(F)F)NCNS2(=O)=O [HYDROFLUMETHIAZIDE] | Ambiguous-Dili-Concern | 2
